pIC50: −log10 of the molar value.
tested on: THP-1 CD14; test: THP-1 CD14 Screening Assay; assay type: cell-based; conditions: Homo sapiens, THP-1, 72 h, THP-1 cells treated with PMA and compound (5-point 10-fold dilution), human CD14 ELISA on media
Description: THP-1 CD14 Screening Assay Protocol:
5×10^4 THP-1 cells were plated per well in a tissue culture-treated 96-well plate. At the time of plating, cells were treated with a final concentration of […] PMA and 0.04% DMSO vehicle, concominant with compounds in a 5-point 10-fold dilution per compound. Cells were treated with PMA and DMSO as a control for differentiation without compound treatment, and with only DMSO as a control for no differentiation and no compound treatment. 500 nM IACS-71432 was added as a control compound across all assay plates.
After incubation at 37° C./5% CO2 for 72 hr, media was collected from the cells and the screening assay was performed using the commercially-available human CD14 SimpleStep ELISA kit from Abcam, according to the following protocol: • 1) ELISA kits were taken out to equilibrate to rt. • 2) Following the protocol listed in the kit, standards were prepared as 1:1 dilutions from 2 ng/ml. • 3) Following the protocol listed in the kit, antibody cocktail was prepared (the volume is contingent on the number of wells required). • 4) 50 μl of standards were added to the appropriate wells, thoroughly mizing the standards before adding to each well. • 5) 25 μl of Sample Diluent (from kit) was added to all sample wells. • 6) Cell plates were centrifuged for 5 min at 300 rcf, with slow acceleration and slow deceleration. • 7) 25 μl of media from cell plates was transferred to assay plates containing standards. • 8) 50 μl of antibody cocktail was added to all of the wells, standards and samples. • 9) Assay plates were sealed tightly and incubated on the plate shaker at 400 rpm for 1 hr at rt. • 10) Wash buffer was prepared following the protocol listed in the kit. • 11) After the hour incubation, assay plates were washed 5 times using 200 μl wash buffer per well per wash. • 12) 100 μl of TMB substrate was added to each well in the dark and incubated on the shaker for 3-4.min, at which point color development was monitored to ensure a robust signal for detection but to avoid oversaturation of signal, for no longer than 10 min. • 13) The absorbance at 607 nm was read on a Perkin Elmer Envision plate reader. • 14) Data was processed using Microsoft Excel and GraphPad Prism.

pIC50	Structure (SMILES)
> 8.30	O=S(=O)(NCc1ccncc1)c1ccc(C2CCCC2)cc1 [Example 2, 4-cyclopentyl-N-(pyridin-4-ylmethyl)benzenesulfonamide]
> 8.30	Nc1cc(CNS(=O)(=O)c2ccc(C3CCCCC3)cc2)ccn1 [Example 9, N-((2-aminopyridin-4-yl)methyl)-4-cyclohexylbenzenesulfonamide]
> 8.30	O=S(=O)(NCc1ccncc1)c1ccc(-c2ccc3ocnc3c2)cc1 [Example 48, 4-(1,3-benzoxazol-5-yl)-N-[(pyridin-4-yl)methyl]benzene-1-sulfonamide]
7.00 to 8.30	O=S(=O)(NCc1ccncc1)c1ccc(N2CCCC2)cc1 [Example 25, N-(pyridin-4-ylmethyl)-4-(pyrrolidin-1-yl)benzenesulfonamide]

Source: US20240043384A1, “INHIBITORS OF PU.1 FOR THE TREATMENT OF DISEASE” (Board of Regents, The University of Texas System, priority 2021, published 2024)
